Data as given in patent publication EP3895695A1, “SUPERCRITICAL CARBON DIOXIDE-BASED METHODOLOGY TO FORMULATE BIOACTIVE PREPARATIONS” (Universidad Autónoma de Madrid, priority 2020, dated 2021).

Tests used:
[1] = HPLC quantification of quercetin, rosmarinic acid and carnosic acid in BIOSAS lipid products; format: physicochemical; conditions: for amount dispersed in oil: rosemary BIOSAS dispersion
From the text: Carnosic acid and rosmarinic acid were identified and quantified in the case of BIOSAS rosemary samples following the procedures described by […]. Garcia-Risco, T. Fornari, G. Reglero, Isolation of carsonic acid from rosemary extracts using semi-preparative supercritical fluid chromatography, J. Chromatogr. A. 1286 (2013) 208-215. doi:10.1016/j.chroma.2013.02.044 using a HPLC Prominence-i LC-2030C 3D Plus (Shimadzu) equipped with a RP-C18 (250 × 4.6 mm; 3 μm) chromatography column. The mobile phase consisted of 0.1 % of phosphoric acid in water (solvent A) and acetonitrile (solvent B) applying the following gradient: 0-8 min, 77 % A, 8-25 min, 25 % A, 25-40 min 25 % A and the 40-45 min 77 % A. Initial conditions were gained in 5 min. The flow rate was constant at 0.7 ml/min. Injection volume was 20 μl and the detection was accomplished using a diode array detection system, storing the signal at a wavelength of 230, 280 and 350 nm. In the case of quercetin BIOSAS dispersion, HPLC analysis was carried out as previously described by Wei et al.. A Prominence-i LC-2030C 3D Plus (Shimadzu) equipped with a quaternary solvent delivery system, an autosampler and DAD detector and RP-C18 (250 × 4.6 mm; 3 μm) was used. The column temperature was set at 25 °C. The mobile phase consists of acetonitrile (A) and 0.026% aqueous H3PO4 (v/v), applying the following gradient elution: at 0-20 min, 20%-25% A, 20-30 min, 25%-34% A, 30-50 min, 34%-50% A, 50-60 min, 50%-60% A and 60-80 min, 60% A. After 5 min, the initial conditions were achieved. The flow rate was 0.7 ml/min and was kept constant during analysis. Injection volume was 20 μl and detection was accomplished at 254, 280 and 370 nm.

mice = conditions: intravenous administration; cited from earlier work

Row | concentration of quercetin in the flaxseed oil ([1]; HPLC analysis, BIOSAS 20 MPa, 313.15 K) | amount dispersed by BIOSAS process ([1]; in high molecular weight triacylglycerols (flaxseed oil), 313.15 K) | Compound | amount dispersed in oil ([1]; argan oil) | amount dispersed in oil ([1]; flaxseed oil) | LD50 (mice)
1 | 1.55 ± 0.05 % mass | > 15 mg/g | O=c1c(O)c(-c2ccc(O)c(O)c2)oc2cc(O)cc(O)c12 [quercetin, 2-(3,4-Dihydroxyphenyl)-3,5,7-trihydroxy-4H-1-benzopyran-4-one,3,3',4',5,6-Pentahydroxyflavone - Quercetin] | – | – | –
2 | – | – | CC(C)c1cc2c(c(O)c1O)[C@@]1(C(=O)O)CCCC(C)(C)[C@@H]1CC2 [carnosic acid, Carnosic acid] | 4.90 mg/g | 6.39 mg/g | –
3 | – | – | O=C(/C=C/c1ccc(O)c(O)c1)O[C@H](Cc1ccc(O)c(O)c1)C(=O)O [rosmarinic acid] | ~0.40 mg/g | 0.51 mg/g | 561 mg/kg
